The source of these data is patent publication US10934310B2, “Inhibitors of Bruton's tyrosine kinase and method of their use” (JANSSEN PHARMACEUTICA NV, priority 2015, dated 2021).

SMILES strings stand for the structures.

Sequence of unphosphorylated-BTK kinase domain (UP-BTK), GST-tagged human BTK (389-659aa) (Q06187 389-659): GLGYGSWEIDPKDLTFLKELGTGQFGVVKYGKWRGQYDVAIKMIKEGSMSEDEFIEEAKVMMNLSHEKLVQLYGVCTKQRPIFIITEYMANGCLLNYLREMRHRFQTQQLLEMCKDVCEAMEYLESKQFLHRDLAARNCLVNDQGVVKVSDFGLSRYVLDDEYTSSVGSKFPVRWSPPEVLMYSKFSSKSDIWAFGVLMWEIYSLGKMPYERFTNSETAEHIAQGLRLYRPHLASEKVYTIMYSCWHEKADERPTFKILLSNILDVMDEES

The target in the first assay is unphosphorylated-BTK kinase domain (UP-BTK), GST-tagged human BTK (389-659aa) (Homo sapiens (Human), UniProt Q06187). Put plainly: BTK Kinase Lanthascreen Binding Assay. The following applies: Lanthascreen binding, 60 minutes incubation; pIC50 = negative log of the IC50 in molar. The method, then:
BTK Kinase Lanthascreen Binding Assay:
A BTK kinase lanthascreen binding assay monitors compound binding to unphosphorylated-BTK kinase domain (UP-BTK), by competing with a fluorescent labeled tracer. […] Data were analyzed using Xlfit™ version 5.3 from ID Business Solutions (Guildford), Microsoft Excel add-in. pIC50 refers to the negative log of the IC50 in molar.
For `C=CC(=O)N[C@@H]1CCC[C@@H](NC(=O)c2sc3nccc4c3c2NC(=O)N4c2ccc(Oc3ccccc3)cn2)C1` (relative stereo) [Example 344, N-((1*R,3*R)-3-Acrylamidocyclohexyl)-4-oxo-5-(5-phenoxypyridin-2-yl)-4,5-dihydro-3H-1-thia-3,5,8-triazaacenaphthylene-2-carboxamide], the “BTK_I_binding pIC50” value was 6.11.

Regarding `CCC(=O)N[C@H]1CCCC[C@H]1NC(=O)c1sc2nccc3c2c1NC(=O)N3c1cnc(Oc2ccccc2)cc1C` (relative stereo) [Example 381, 5-(*S)-(4-Methyl-6-phenoxypyridin-3-yl)-4-oxo-N-((1R,2S)-2-propionamidocyclohexyl)-4,5-dihydro-3H-1-thia-3,5,8-triazaacenaphthylene-2-carboxamide], the “BTK_I_binding pIC50” value came out at 6.75.

Staying with this assay, now noted: compound, 50 nM Tracer 236, 2 nM anti-GST antibody, 60 minutes; pIC50 = negative log of the IC50 in molar.
As to `CNC1CC[C@H](NC(=O)c2sc3nccc4c3c2NC(=O)N4c2ccc(Oc3ccccc3)cc2C)C1` (mixture of isomers) [Example 80, 5-(2-Methyl-4-phenoxyphenyl)-N-((1S)-3-(methylamino)cyclopentyl)-4-oxo-4,5-dihydro-3H-1-thia-3,5,8-triazaacenaphthylene-2-carboxamide], the “BTK_I_binding pIC50” value is given as 6.42.

Consider `Cc1cc(Oc2ccccc2)ccc1N1C(=O)Nc2c(C(=O)N[C@@H]3CCCC[C@@H]3N(C)C)sc3nccc1c23` (relative stereo) [Example 7, N-((1R,2S)-2-(Dimethylamino)cyclohexyl)-5-(*S)-(2-methyl-4-phenoxyphenyl)-4-oxo-4,5-dihydro-3H-1-thia-3,5,8-triazaacenaphthylene-2-carboxamide], for which the “BTK_I_binding pIC50” value was 7.31.

As to `CC(=O)N[C@@H]1CC[C@H](NC(=O)c2sc3nccc4c3c2NC(=O)N4c2ccc(Oc3ccccc3)cc2C)C1` (relative stereo) [Example 88, N-((1S,3R)-3-Acetamidocyclopentyl)-5-(*S)-(2-methyl-4-phenoxyphenyl)-4-oxo-4,5-dihydro-3H-1-thia-3,5,8-triazaacenaphthylene-2-carboxamide], the “BTK_I_binding pIC50” value is reported as 7.89.

As to `CNCC(=O)N[C@H]1CCC[C@H](NC(=O)c2sc3nccc4c3c2NC(=O)N4c2ccc(Oc3ccccc3)cc2C)C1` (relative stereo) [Example 250, 5-(*S)-(2-Methyl-4-phenoxyphenyl)-N-((1R,3S)-3-(2-(methylamino)acetamido)cyclohexyl)-4-oxo-4,5-dihydro-3H-1-thia-3,5,8-triazaacenaphthylene-2-carboxamide], the “BTK_I_binding pIC50” value was found to be 6.75.

With `C=CC(=O)N[C@H]1CC[C@@H](NC(=O)c2sc3nccc4c3c2NC(=O)N4c2ccc(Oc3ccccc3)cc2C)CC1` (single isomer, unassigned) [Example 1, N-((1S,4S)-4-Acrylamidocyclohexyl)-5-(*S)-(2-methyl-4-phenoxyphenyl)-4-oxo-4,5-dihydro-3H-1-thia-3,5,8-triazaacenaphthylene-2-carboxamide], the “BTK_I_binding pIC50” value is 7.61.

On to `Cc1cc(Oc2ccccc2)ccc1N1C(=O)Nc2c(C(=O)N[C@@H]3CCCC[C@@H]3N)sc3nccc1c23` (single isomer, unassigned) [Example 5, N-((1R,2S)-2-Aminocyclohexyl)-5-(*S)-(2-methyl-4-phenoxyphenyl)-4-oxo-4,5-dihydro-3H-1-thia-3,5,8-triazaacenaphthylene-2-carboxamide], for which the “BTK_I_binding pIC50” value was 7.69.

Staying with this assay, now noted: read-out: BTK_I_binding pIC50 (converted).
`Cc1cc(Oc2ccccc2)ccc1N1C(=O)Nc2c(C(=O)NC3CCCCC3O)sc3nccc1c23` (racemic) [Example 27, N-((1RS,2RS)-2-Hydroxycyclohexyl)-5-(2-methyl-4-phenoxyphenyl)-4-oxo-4,5-dihydro-3H-1-thia-3,5,8-triazaacenaphthylene-2-carboxamide]: the IC50 was 110 nM.

As for `Cc1cc(Oc2ccccc2)ccc1N1C(=O)Nc2c(C(=O)N[C@H]3CCCC[C@@H]3O)sc3nccc1c23` (racemic) [Example 36, N-((1RS,2RS)-2-Hydroxycyclohexyl)-5-(2-methyl-4-phenoxyphenyl)-4-oxo-4,5-dihydro-3H-1-thia-3,5,8-triazaacenaphthylene-2-carboxamide], the IC50 was 191 nM.

Regarding `N[C@H]1CC[C@@H](NC(=O)c2sc3nccc4c3c2NC(=O)N4c2ccc(Oc3ccccc3)cc2)C1` (racemic) [Example 96, N-(rac-(1,3-cis)-3-Aminocyclopentyl)-4-oxo-5-(4-phenoxyphenyl)-4,5-dihydro-3H-1-thia-3,5,8-triazaacenaphthylene-2-carboxamide], the IC50 was 77.6 nM.

For the compound `C=CC(=O)NC1CCC(NC(=O)c2sc3nccc4c3c2NC(=O)N4c2ccc(Oc3ccccc3)cc2)C1` (racemic) [Example 109, N-((1RS,3RS)-3-Acrylamidocyclopentyl)-4-oxo-5-(4-phenoxyphenyl)-4,5-dihydro-3H-1-thia-3,5,8-triazaacenaphthylene-2-carboxamide], the IC50 is 14.1 nM.

With `N[C@@H]1CC[C@@H](NC(=O)c2sc3nccc4c3c2NC(=O)N4c2ccc(Oc3ccccc3)cc2)C1` (racemic) [Example 147, trans-N-((1RS,3RS)-3-Aminocyclopentyl)-4-oxo-5-(4-phenoxyphenyl)-4,5-dihydro-3H-1-thia-3,5,8-triazaacenaphthylene-2-carboxamide], the IC50 was 234 nM.

For `C=CC(=O)N[C@@H]1CC[C@@H](NC(=O)c2sc3nccc4c3c2NC(=O)N4c2ccc(Oc3ccccc3)nc2)C1` (racemic) [Example 188, N-((1RS,3RS)-3-Acrylamidocyclopentyl)-4-oxo-5-(6-phenoxypyridin-3-yl)-4,5-dihydro-3H-1-thia-3,5,8-triazaacenaphthylene-2-carboxamide], the IC50 is 77.6 nM.

Consider `C=CC(=O)NC1CCC(NC(=O)c2sc3nccc4c3c2NC(=O)N4c2ccc(Oc3ccccc3)cn2)C1` (racemic) [Example 214, N-((1RS,3RS)-3-Acrylamidocyclopentyl)-4-oxo-5-(5-phenoxypyridin-2-yl)-4,5-dihydro-3H-1-thia-3,5,8-triazaacenaphthylene-2-carboxamide], for which the IC50 was 14.1 nM.

`C=CC(=O)N[C@@H]1CCC[C@@H](NC(=O)c2sc3nccc4c3c2NC(=O)N4c2ccc(Oc3ccccc3)cn2)C1` (racemic) [Example 216, N-((1RS,3RS)-3-Acrylamidocyclohexyl)-4-oxo-5-(5-phenoxypyridin-2-yl)-4,5-dihydro-3H-1-thia-3,5,8-triazaacenaphthylene-2-carboxamide]: the IC50 was 36.3 nM.

Take `N[C@@H]1CC[C@H](NC(=O)c2sc3nccc4c3c2NC(=O)N4c2ccc(Oc3ccccc3)nc2)C1` (racemic) [Example 289, racemic cis N-((1RS,3RS)-3-Aminocyclopentyl)-4-oxo-5-(6-phenoxypyridin-3-yl)-4,5-dihydro-3H-1-thia-3,5,8-triazaacenaphthylene-2-carboxamide]: the IC50 was 1700 nM.

On to `N[C@H]1CC[C@H](NC(=O)c2sc3nccc4c3c2NC(=O)N4c2ccc(Oc3ccccc3)nc2)C1` (racemic) [Example 290, racemic trans N-((1RS,3RS)-3-Aminocyclopentyl)-4-oxo-5-(6-phenoxypyridin-3-yl)-4,5-dihydro-3H-1-thia-3,5,8-triazaacenaphthylene-2-carboxamide], for which the IC50 was 2240 nM.
